This is an account of results in article PMC10652111, “Zymograph profiling reveals a divergent evolution of sirtuin that may originate from class III enzymes” (The Journal of Biological Chemistry, 2023).

The target of the test is T1, STM1221 (Salmonella enterica, UniProt P0A2F2).
T1 construct: gene cobB; expressed from pET28b in E. coli BL21, nickel-purified
T1 sequence (P0A2F2 1-273): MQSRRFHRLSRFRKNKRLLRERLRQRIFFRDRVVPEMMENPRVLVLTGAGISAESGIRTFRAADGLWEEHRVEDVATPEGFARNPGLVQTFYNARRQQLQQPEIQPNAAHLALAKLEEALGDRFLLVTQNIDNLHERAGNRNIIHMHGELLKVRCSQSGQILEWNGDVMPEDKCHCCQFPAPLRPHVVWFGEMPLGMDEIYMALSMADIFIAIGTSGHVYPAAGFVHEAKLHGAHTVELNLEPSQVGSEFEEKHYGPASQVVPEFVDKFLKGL
The test can be described thus: HPLC deacylation assay. The following applies: 1 mM NAD+, 1 mM acylated H3K27 13-mer peptide as co-substrate, 5 uM enzyme, 6 mM MgCl2, pH 8.0, 37 °C. Type of test: biochemical.

Consider `NC(=O)c1ccc[n+]([C@@H]2O[C@H](COP(=O)(O)OP(=O)(O)OC[C@H]3O[C@@H](n4cnc5c(N)ncnc54)[C@H](O)[C@@H]3O)[C@@H](O)[C@H]2O)c1` [NAD^+], for which the HPLC deacylation assay result is “The reactions without NAD^+ were used as the negative controls”.
